Source: ChEMBL document CHEMBL6087442, “Modulating the Potency of BRD4 PROTACs at the Systems Level with Amine-Acid Coupling Reactions” (J Med Chem, 2025)

Experiments:
[1] = biological target: T1, von Hippel-Lindau disease tumor suppressor/Bromodomain-containing protein 4 (Homo sapiens, UniProt O60885+P40337); assay: PROTAC activity at VHL/BRD4 in HEK293 cells assessed as induction of BRD4 degradation incubated for 24 hrs by HTRF assay; type: cell-based
[2] = biological target: T1, von Hippel-Lindau disease tumor suppressor/Bromodomain-containing protein 4; assay: PROTAC activity at VHL/BRD4 in HEK293 cells assessed as induction of BRD4 degradation by measuring maximal efficacy incubated for 24 hrs by HTRF assay relative to control; type: cell-based
[3] = Chromatographic hydrophobicity index, logD of the compound at pH 7.4; type: physicochemical; settings: buffer
Homo sapiens = species on record: Homo sapiens; assay: Selectivity ratio of IC50 for NanoLuc-fused CRBN (unknown origin) transfected in live HEK293 cells to IC50 for NanoLuc-fused CRBN (unknown origin) transfected in permeabilized HEK293 cells; type: cell-based
Protein cereblon [4] = biological target: T2, Protein cereblon (Homo sapiens, UniProt Q96SW2); assay: Binding affinity to NanoLuc-fused CRBN (unknown origin) transfected in live HEK293 cells using NanoGlo as substrate incubated for 2 hrs by NanoBRET assay; type: cell-based
[5] = biological target: T3, Protein cereblon/Bromodomain-containing protein 4/DNA damage-binding protein 1 (Homo sapiens) (UniProt O60885+Q96SW2+Q16531); assay: Binding affinity to biotinylated CRBN/DDB1/N-terminal GST-tagged BRD4-BD1 (unknown origin) assessed as ternary complex formation (KTF) by HTRF assay; type: protein assay
[6] = biological target: Bromodomain-containing protein 4 (Homo sapiens, UniProt O60885); assay: Binding affinity to N-terminal GST-tagged BRD4-BD1 (unknown origin) using biotinylated histon4 peptide as substrate incubated for 30 mins by HTRF assay
[7] = biological target: T4, Protein cereblon/Bromodomain-containing protein 4 (Homo sapiens, UniProt O60885+Q96SW2); assay: PROTAC activity at CRBN/BRD4 in HEK293 cells assessed as induction of BRD4 degradation incubated for 24 hrs by HTRF assay; type: cell-based
[8] = biological target: T4, Protein cereblon/Bromodomain-containing protein 4; assay: PROTAC activity at CRBN/BRD4 in HEK293 cells assessed as induction of BRD4 degradation by measuring maximal efficacy incubated for 24 hrs by HTRF assay relative to control; type: cell-based
Protein cereblon [9] = biological target: T2, Protein cereblon; assay: Binding affinity to NanoLuc-fused CRBN (unknown origin) transfected in permeabilized HEK293 cells using NanoGlo as substrate incubated for 2 hrs by NanoBRET assay; type: cell-based
[10] = biological target: T3, Protein cereblon/Bromodomain-containing protein 4/DNA damage-binding protein 1 (Homo sapiens); assay: Binding affinity to biotinylated CRBN/DDB1/N-terminal GST-tagged BRD4-BD1(unknown origin) assessed as ternary complex formation (AUC) by HTRF assay; type: protein assay

T1 sequence (P40337 whole entry, looked up, other chains not shown): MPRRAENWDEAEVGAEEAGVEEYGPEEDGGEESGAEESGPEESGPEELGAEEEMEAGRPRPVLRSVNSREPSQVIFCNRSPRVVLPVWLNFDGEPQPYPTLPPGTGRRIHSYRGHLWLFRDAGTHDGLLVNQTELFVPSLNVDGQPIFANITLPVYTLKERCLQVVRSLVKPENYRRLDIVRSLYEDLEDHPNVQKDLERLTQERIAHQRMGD

SMILES | DC50 [1] [nM] | Emax [2] [%] | chromatographic logD [3] | Ratio IC50 (Homo sapiens) | IC50 (Protein cereblon [4]) [nM] | K [5] [nM] | IC50 [6] [nM] | DC50 [7] [nM] | Emax [8] [%] | IC50 (Protein cereblon [9]) [nM] | AUC [10]
Cc1ncsc1-c1ccc(CNC(=O)[C@@H]2C[C@@H](O)CN2C(=O)[C@H](C(C)C)N2Cc3ccccc3C2=O)c(OCCCOCCC(=O)C[C@@H]2N=C(c3ccc(Cl)cc3)c3c(sc(C)c3C)-n3c(C)nnc32)c1 | 13.4 | 79 | 3.16 | – | – | – | – | – | – | – | –
Cc1sc2c(c1C)C(c1ccc(Cl)cc1)=N[C@@H](CC(=O)OCCCCNC(=O)COc1cccc3c1C(=O)N(C1CCC(=O)NC1=O)C3=O)c1nnc(C)n1-2 (stereo not given in full) | – | – | 2.68 | 2.4 | 264 | 5 | 2.3 | 5.4 | 83 | 68.8 | 158
Cc1sc2c(c1C)C(c1ccc(Cl)cc1)=N[C@@H](CC(=O)CCCCNC(=O)COc1cccc3c1C(=O)N(C1CCC(=O)NC1=O)C3=O)c1nnc(C)n1-2 (stereo not given in full) | – | – | 2.57 | 3.9 | 422 | 6.7 | 24.2 | 9.2 | 85 | 107 | 251
Cc1ncsc1-c1ccc(CNC(=O)[C@@H]2C[C@@H](O)CN2C(=O)[C@H](C(C)C)N2Cc3ccccc3C2=O)c(OCCCOCCNC(=O)C[C@@H]2N=C(c3ccc(Cl)cc3)c3c(sc(C)c3C)-n3c(C)nnc32)c1 | 68.3 | 87 | 2.78 | – | – | – | – | – | – | – | –
Cc1ncsc1-c1ccc(CNC(=O)[C@@H]2C[C@@H](O)CN2C(=O)[C@H](C(C)C)N2Cc3ccccc3C2=O)c(OCCCOCCNCC[C@@H]2N=C(c3ccc(Cl)cc3)c3c(sc(C)c3C)-n3c(C)nnc32)c1 | > 11000 | 14 | 2.3 | – | – | – | – | – | – | – | –
Cc1sc2c(c1C)C(c1ccc(Cl)cc1)=N[C@@H](CCCCCNC(=O)COc1cccc3c1C(=O)N(C1CCC(=O)NC1=O)C3=O)c1nnc(C)n1-2 (stereo not given in full) | – | – | 2.81 | 4.2 | 503 | 29.2 | 66.9 | 10.8 | 76 | 121 | 156
Cc1ncsc1-c1ccc(CNC(=O)[C@@H]2C[C@@H](O)CN2C(=O)[C@H](C(C)C)N2Cc3ccccc3C2=O)c(OCCCOCCOC(=O)C[C@@H]2N=C(c3ccc(Cl)cc3)c3c(sc(C)c3C)-n3c(C)nnc32)c1 | 15.8 | 89 | 3.25 | – | – | – | – | – | – | – | –
Cc1sc2c(c1C)C(c1ccc(Cl)cc1)=N[C@@H](CCNCCCCNC(=O)COc1cccc3c1C(=O)N(C1CCC(=O)NC1=O)C3=O)c1nnc(C)n1-2 (stereo not given in full) | – | – | 1.66 | 110 | 11300 | 108 | 453 | > 11000 | 2 | 102 | 71.5
Cc1sc2c(c1C)C(c1ccc(Cl)cc1)=N[C@@H](CC(=O)NCCCCNC(=O)COc1cccc3c1C(=O)N(C1CCC(=O)NC1=O)C3=O)c1nnc(C)n1-2 (stereo not given in full) | – | – | 2.16 | – | – | 9.4 | – | – | 80 | – | 163
Cc1ncsc1-c1ccc(CNC(=O)[C@@H]2C[C@@H](O)CN2C(=O)[C@H](C(C)C)N2Cc3ccccc3C2=O)c(OCCCOCCCC[C@@H]2N=C(c3ccc(Cl)cc3)c3c(sc(C)c3C)-n3c(C)nnc32)c1 | 228 | 58 | 3.38 | – | – | – | – | – | – | – | –
